The results in this text go back to patent publication US20210378193A1, “HAPLOID EMBRYOGENESIS” (STICHTING WAGENINGEN RESEARCH, priority 2013, published 2021).

This assay has as its system Arabidopsis immature male gametophytes. The experiment in a line: Arabidopsis anther culture, sporophytic division of immature male gametophytes. The class given is cell-based. As to conditions: Col0 anthers, 25° C., 0.5 μM TSA, five days; never observed without TSA. How it is done: Arabidopsis flower buds at stage 11 were collected for anther culture. Flower buds were surface sterilized in 2% bleach for 10 minutes, then rinsed three times in distilled water. The anthers (without filament) were placed in a liquid NLN-13 medium containing 0.5 μM TSA or the same volume of DMSO and then cut in half transversely in the medium to release the microspores. The cultures were placed at 25° C. for 20 hours in the dark. The medium was then replaced by fresh NLN-13 medium by pipetting gently, and the cultures incubated at 25° C. for an additional four days. Free and loosely attached microspores were collected and stained with DAPI. Arabidopsis hda T-DNA insertion lines were obtained from Nottingham Arabidopsis Stock Centre. At least 300 microspores per sample were counted.
Multicellular structures that resemble the Type II and IV structures seen in Brassica microspore culture are produced when stage 11 Arabidopsis anthers are cultured at 25° C. with 0.5 μM TSA. […] TSA induces embryogenic cell divisions in Arabidopsis immature male gametophytes. Panels show: (A)=DAPI stained anther in TSA-treated culture showing multicellular, sporophytic structures derived from immature male gametophytes (arrow). […] (B)=cleared anther from a control culture showing lack of sporophytic cell proliferation. […]

Regarding `CC(/C=C/C(=O)NO)=C\[C@@H](C)C(=O)c1ccc(N(C)C)cc1` [TSA, trichostatin A], the “percentage of immature male gametophytes that divided sporophytically” value is recorded as 0-5%.
